In one test the test system is pERK in A549 cells. Briefly: Inhibition of KRas phosphorylation of ERK (Cisbio HTRF pERK assay). The settings on record: Homo sapiens, A549, read-out: Inhibition (HTRF IC50) of KRas-mediated Phosphorylation of ERK, A549. On the technique in general: In TR-FRET formats the signal depends on donor and acceptor labels being close together.
A further test relates to pERK in H727 cells. The test is described as above. The settings on record: Homo sapiens, NCI-H727, read-out: Inhibition (HTRF IC50) of KRas-mediated Phosphorylation of ERK, H727.
Another test concerns pERK in HCT116 cells. Described as above. The following applies: Homo sapiens, HCT-116, read-out: Inhibition (HTRF IC50) of KRas-mediated Phosphorylation of ERK, HCT116.
For a further test, the system named is pERK in H358 cells. The description is as above. The following applies: Homo sapiens, NCI-H358, read-out: Inhibition (HTRF IC50) of KRas-mediated Phosphorylation of ERK, H358.
The test system of the next test is pERK in PSN1 cells. The test is described as above. The settings on record: Homo sapiens, PSN1, 3 h, read-out: Inhibition (HTRF IC50) of KRas-mediated Phosphorylation of ERK, PSN1.
Another test addresses KRas G12R (Homo sapiens, UniProt P01116, G12R). As to the kind of experiment: biochemical.
A further test concerns pERK in H460 cells. Briefly: Inhibition of KRas phosphorylation of ERK (Cisbio HTRF pERK assay). The following applies: Homo sapiens, NCI-H460, read-out: Inhibition (HTRF IC50) of KRas-mediated Phosphorylation of ERK, H460.
The test system of another test is pERK in ASPC1 cells. The test is described as above. The settings on record: Homo sapiens, ASPC1, read-out: Inhibition (HTRF IC50) of KRas-mediated Phosphorylation of ERK, AsPC-1.
Another test has as its target KRas G12V (Homo sapiens, UniProt P01116, G12V). Briefly: biochemical.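 Also: KRas binding measured by TR-FRET displacement at room temperature, IC50 fitted from percent of control values.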
Another test has as its system pERK in MKN1 cells. As to the kind of experiment: Inhibition of KRas phosphorylation of ERK (Cisbio HTRF pERK assay). The following applies: Homo sapiens, MKN-1, 3 h, read-out: Inhibition (HTRF IC50) of KRas-mediated Phosphorylation of ERK, MKN1.
The next test has as its target KRas G12D (Homo sapiens, UniProt P01116, G12D). As to the kind of experiment: biochemical.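 Also: TR-FRET displacement binding assay on KRas, read after a one-hour incubation at room temperature, IC50 fitted from percent-of-control values.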

Sequence of KRas G12V (P01116 1-169 isoform P01116-2 G12V): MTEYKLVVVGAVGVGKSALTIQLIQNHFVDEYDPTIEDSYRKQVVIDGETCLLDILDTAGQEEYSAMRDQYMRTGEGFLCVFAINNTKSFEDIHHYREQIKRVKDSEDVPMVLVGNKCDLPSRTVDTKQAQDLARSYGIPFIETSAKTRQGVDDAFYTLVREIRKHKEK
Sequence of KRas G12D (P01116 1-169 isoform P01116-2 G12D): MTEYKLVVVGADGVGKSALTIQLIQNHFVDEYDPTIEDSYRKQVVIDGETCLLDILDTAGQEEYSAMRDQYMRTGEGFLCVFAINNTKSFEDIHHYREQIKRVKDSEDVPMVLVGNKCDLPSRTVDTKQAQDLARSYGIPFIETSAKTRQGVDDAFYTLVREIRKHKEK
Sequence of KRas G12R (P01116 1-169 isoform P01116-2 G12R): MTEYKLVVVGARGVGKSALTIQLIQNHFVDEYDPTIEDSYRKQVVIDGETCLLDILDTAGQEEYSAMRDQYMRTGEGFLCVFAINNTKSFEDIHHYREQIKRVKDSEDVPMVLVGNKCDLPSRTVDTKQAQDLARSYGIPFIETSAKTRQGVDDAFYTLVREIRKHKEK

For the compound `CCc1c(F)ccc2cc(O)cc(-c3ncc4c(N5CCCSCC5)nc(OC[C@@]56CCCN5C[C@H](F)C6)nc4c3F)c12` [Example 342, 5-ethyl-6-fluoro-4-(8-fluoro-2-(((2R,7aS)-2-fluorohexahydro-1H-pyrrolizin-7a-yl)methoxy)-4-(1,4-thiazepan-4-yl)pyrido[4,3-d]pyrimidin-7-yl)naphthalen-2-ol], the IC50 in the test on pERK in A549 cells is 167 nM; in the test with pERK in H727 cells, 46 nM; with pERK in HCT116 cells, 470 nM; in the test on pERK in H358 cells, 62 nM; with pERK in PSN1 cells, 2240 nM; on KRas G12R, no more than 2 nM. In addition, the 50% inhibitory concentration (IC50) is 203 nM in the test on pERK in H460 cells; 23 nM with pERK in ASPC1 cells; no more than 2 nM at KRas G12V; 4 nM with pERK in MKN1 cells; 3 nM against KRas G12D.

As for `CCc1c(F)ccc2cc(O)cc(-c3ncc4c(N5CCCOC(CO)C5)nc(OC[C@@]56CCCN5C[C@H](F)C6)nc4c3F)c12` (stereo partly drawn) [Example 343, 5-ethyl-6-fluoro-4-(8-fluoro-2-(((2R,7aS)-2-fluorotetrahydro-1H-pyrrolizin-7a(5H)-yl)methoxy)-4-(2-(hydroxymethyl)-1,4-oxazepan-4-yl)pyrido[4,3-d]pyrimidin-7-yl)naphthalen-2-ol], the IC50 was 91 nM in the test with pERK in A549 cells; 24 nM with pERK in H727 cells; 128 nM with pERK in HCT116 cells; 7 nM in the test with pERK in H358 cells; 5930 nM in the test with pERK in PSN1 cells; no more than 2 nM at KRas G12R. Moreover, the IC50 in the test on pERK in H460 cells was 128 nM; with pERK in ASPC1 cells, 60 nM; against KRas G12V, no more than 2 nM; with pERK in MKN1 cells, 4 nM; on KRas G12D it was no more than 2 nM.

As to `CCc1c(F)ccc2cc(O)cc(-c3ncc4c(N5CCCc6nn(C(=O)N(C)C)cc6C5)nc(OC[C@@]56CCCN5C[C@H](F)C6)nc4c3F)c12` [Example 353, 5-(7-(8-ethyl-7-fluoro-3-hydroxynaphthalen-1-yl)-8-fluoro-2-(((2R,7aS)-2-fluorohexahydro-1H-pyrrolizin-7a-yl)methoxy)pyrido[4,3-d]pyrimidin-4-yl)-N,N-dimethyl-5,6,7,8-tetrahydropyrazolo[4,3-c]azepine-2(4H)-carboxamide], the IC50 with pERK in A549 cells is 80 nM; with pERK in H727 cells, 34 nM; in the test on pERK in HCT116 cells, 396 nM; in the test with pERK in H358 cells, 19 nM; with pERK in PSN1 cells, 4810 nM; against KRas G12R, no more than 2 nM. Further, the concentration for half-maximal inhibition (IC50) is 149 nM with pERK in H460 cells; 7 nM with pERK in ASPC1 cells; no more than 2 nM at KRas G12V; 24 nM with pERK in MKN1 cells; no more than 2 nM on KRas G12D.

For the compound `CCc1c(F)ccc2cc(O)cc(-c3ncc4c(N5CCCn6nc(C(=O)N7CCOCC7)cc6C5)nc(OC[C@@]56CCCN5C[C@H](F)C6)nc4c3F)c12` [Example 354, (5-(7-(8-ethyl-7-fluoro-3-hydroxynaphthalen-1-yl)-8-fluoro-2-(((2R,7aS)-2-fluorohexahydro-1H-pyrrolizin-7a-yl)methoxy)pyrido[4,3-d]pyrimidin-4-yl)-5,6,7,8-tetrahydro-4H-pyrazolo[1,5-a][1,4]diazepin-2-yl)(morpholino)methanone], the concentration for half-maximal inhibition (IC50) with pERK in A549 cells was 65 nM; in the test on pERK in H727 cells it was 48 nM; in the test with pERK in HCT116 cells, 623 nM; in the test with pERK in H358 cells, 17 nM; in the test with pERK in PSN1 cells, no less than 10000 nM; against KRas G12R, no more than 2 nM. In addition, the IC50 in the test on pERK in H460 cells is 304 nM; in the test with pERK in ASPC1 cells, 14 nM; at KRas G12V, no more than 2 nM; in the test with pERK in MKN1 cells it was 14 nM; on KRas G12D it was no more than 2 nM.

As for `CCc1c(F)ccc2cc(O)cc(-c3ncc4c(N5CCCn6nc(C(=O)N7CCCC7)cc6C5)nc(OC[C@@]56CCCN5C[C@H](F)C6)nc4c3F)c12` [Example 355, (5-(7-(8-ethyl-7-fluoro-3-hydroxynaphthalen-1-yl)-8-fluoro-2-(((2R,7aS)-2-fluorohexahydro-1H-pyrrolizin-7a-yl)methoxy)pyrido[4,3-d]pyrimidin-4-yl)-5,6,7,8-tetrahydro-4H-pyrazolo[1,5-a][1,4]diazepin-2-yl)(pyrrolidin-1-yl)methanone], the IC50 with pERK in A549 cells is 140 nM; with pERK in H727 cells, 30 nM; in the test with pERK in HCT116 cells, 471 nM; in the test with pERK in H358 cells, 16 nM; with pERK in PSN1 cells it was 6770 nM; against KRas G12R, no more than 2 nM. In addition, the IC50 was 270 nM with pERK in H460 cells; 8 nM in the test with pERK in ASPC1 cells; no more than 2 nM against KRas G12V; 17 nM in the test on pERK in MKN1 cells; no more than 2 nM on KRas G12D.

As to `CCNC(=O)c1cc2n(n1)CCCN(c1nc(OC[C@@]34CCCN3C[C@H](F)C4)nc3c(F)c(-c4cc(O)cc5ccc(F)c(CC)c45)ncc13)C2` [Example 356, N-ethyl-5-(7-(8-ethyl-7-fluoro-3-hydroxynaphthalen-1-yl)-8-fluoro-2-(((2R,7aS)-2-fluorohexahydro-1H-pyrrolizin-7a-yl)methoxy)pyrido[4,3-d]pyrimidin-4-yl)-5,6,7,8-tetrahydro-4H-pyrazolo[1,5-a][1,4]diazepine-2-carboxamide], the IC50 is 232 nM in the test on pERK in A549 cells; 63 nM in the test with pERK in H727 cells; 767 nM with pERK in HCT116 cells; 20 nM with pERK in H358 cells; 9300 nM in the test on pERK in PSN1 cells; no more than 2 nM against KRas G12R. Besides, the concentration for half-maximal inhibition (IC50) in the test on pERK in H460 cells is 458 nM; with pERK in ASPC1 cells, 16 nM; against KRas G12V, no more than 2 nM; in the test with pERK in MKN1 cells it was 40 nM; at KRas G12D it was no more than 2 nM.

`CCc1c(F)ccc2cc(O)cc(-c3ncc4c(N5CCCn6nc(C(=O)NC(C)C)cc6C5)nc(OC[C@@]56CCCN5C[C@H](F)C6)nc4c3F)c12` [Example 357, 5-(7-(8-ethyl-7-fluoro-3-hydroxynaphthalen-1-yl)-8-fluoro-2-(((2R,7aS)-2-fluorohexahydro-1H-pyrrolizin-7a-yl)methoxy)pyrido[4,3-d]pyrimidin-4-yl)-N-isopropyl-5,6,7,8-tetrahydro-4H-pyrazolo[1,5-a][1,4]diazepine-2-carboxamide]: the IC50 with pERK in A549 cells was 576 nM; with pERK in H727 cells it was 63 nM; with pERK in HCT116 cells, 1350 nM; in the test with pERK in H358 cells, 27 nM; in the test on pERK in PSN1 cells it was 7480 nM; on KRas G12R it was no more than 2 nM. Also, the IC50 in the test on pERK in H460 cells is 805 nM; in the test with pERK in ASPC1 cells it was 13 nM; at KRas G12V, no more than 2 nM; with pERK in MKN1 cells it was 71 nM; against KRas G12D, no more than 2 nM.

`CCc1c(F)ccc2cc(O)cc(-c3ncc4c(N5CCCn6nc(C(=O)N(C)CC)cc6C5)nc(OC[C@@]56CCCN5C[C@H](F)C6)nc4c3F)c12` [Example 358, N-ethyl-5-(7-(8-ethyl-7-fluoro-3-hydroxynaphthalen-1-yl)-8-fluoro-2-(((2R,7aS)-2-fluorotetrahydro-1H-pyrrolizin-7a(5H)-yl)methoxy)pyrido[4,3-d]pyrimidin-4-yl)-N-methyl-5,6,7,8-tetrahydro-4H-pyrazolo[1,5-a][1,4]diazepine-2-carboxamide]: the half-inhibitory concentration (IC50) in the test with pERK in A549 cells is 44 nM; in the test with pERK in H727 cells, 15 nM; with pERK in HCT116 cells, 167 nM; with pERK in H358 cells it was 3 nM; with pERK in PSN1 cells, 9770 nM; against KRas G12R it was no more than 2 nM. The IC50 with pERK in H460 cells was 131 nM; with pERK in ASPC1 cells, 12 nM; on KRas G12V, no more than 2 nM; in the test with pERK in MKN1 cells, 4 nM; on KRas G12D, no more than 2 nM.

In the case of `CCc1c(F)ccc2cc(O)cc(-c3ncc4c(N5CCOC[C@@](C)(O)C5)nc(OCC5(CN(C)C)CC5)nc4c3F)c12` [Example 361, (S)-4-(2-((1-((dimethylamino)methyl)cyclopropyl)methoxy)-7-(8-ethyl-7-fluoro-3-hydroxynaphthalen-1-yl)-8-fluoropyrido[4,3-d]pyrimidin-4-yl)-6-methyl-1,4-oxazepan-6-ol], the IC50 in the test with pERK in A549 cells was 122 nM; in the test on pERK in H727 cells, 49 nM; in the test on pERK in HCT116 cells it was 231 nM; with pERK in H358 cells, 17 nM; with pERK in PSN1 cells, 6820 nM; against KRas G12R, no more than 2 nM. Moreover, the 50% inhibitory concentration (IC50) with pERK in H460 cells was 85 nM; with pERK in ASPC1 cells it was 8 nM; at KRas G12V, no more than 2 nM; in the test on pERK in MKN1 cells, 3 nM; at KRas G12D, no more than 2 nM.

By IC50 is commonly meant the point on the concentration scale where inhibition reaches its midpoint.
